Tested on: Mouse melanoma cell B16F10
Test: Melanin production after blue light exposure, OD450
Type: cell-based
Conditions: B16F10 cells, 0.25 mg/mL 24 hours, blue light 3 hours, then 48 hours
Description: The changes in melanin content of melanoma cell line B16F10 after being treated with Rubus fruticosus extract are determined by an ELISA reader (enzyme-linked immunosorbent assay reader). Materials and Instruments: • 1. Cell line: Mouse melanoma cell B16F10, purchased from American Type Culture Collection (ATCC®, No. 6475), hereinafter referred to as B16F10 cells. • 2. Medium: Dulbecco's modified […] (DMEM, purchased from Gibco, Cat. 12100-038) is supplemented with additional ingredients to contain 1 vol % antibiotic solution (Antibiotic Antimycotic Solution, purchased from Gibco, 15240-062) and 10 vol % FBS (fetal bovine Serum, purchased from Gibco, 10437-028). Gibco, 15240-062). • 3. Phosphate Buffer Solution (PBS solution): purchased from Gibco, Product No. […]. • 4. Prepare a solution of 1N NaOH (Sigma, Product No. 221465) in secondary distilled water. • 5. ELISA reader (purchased from BioTek, product number FLx 800). • 6. […] Transfer 100 μL of the sample to be tested into a 96-well plate and measure the absorbance value of the cell solution at 450 nm using an ELISA reader. The relative melanin expressions of the experimental and control groups are calculated according to the following formula: Relative melanin expression (%)=(OD 450 value of each group/OD450 value of the control group)×100%.

Compound: O=c1cc(CO)occ1O [kojic acid, Kojic acid]
- melanin production compared with the control group: 67.42%
